These results are taken from patent US11161854B2, “Indazolyl-spiro[2.2]pentane-carbonitrile derivatives as LRRK2 inhibitors, pharmaceutical compositions, and uses thereof” (Merck Sharp & Dohme Corp., priority 2017, dated 2021).

GST-tagged truncated human mutant G2019S LRRK2, sequence (Q5S007 970-2527 G2019S): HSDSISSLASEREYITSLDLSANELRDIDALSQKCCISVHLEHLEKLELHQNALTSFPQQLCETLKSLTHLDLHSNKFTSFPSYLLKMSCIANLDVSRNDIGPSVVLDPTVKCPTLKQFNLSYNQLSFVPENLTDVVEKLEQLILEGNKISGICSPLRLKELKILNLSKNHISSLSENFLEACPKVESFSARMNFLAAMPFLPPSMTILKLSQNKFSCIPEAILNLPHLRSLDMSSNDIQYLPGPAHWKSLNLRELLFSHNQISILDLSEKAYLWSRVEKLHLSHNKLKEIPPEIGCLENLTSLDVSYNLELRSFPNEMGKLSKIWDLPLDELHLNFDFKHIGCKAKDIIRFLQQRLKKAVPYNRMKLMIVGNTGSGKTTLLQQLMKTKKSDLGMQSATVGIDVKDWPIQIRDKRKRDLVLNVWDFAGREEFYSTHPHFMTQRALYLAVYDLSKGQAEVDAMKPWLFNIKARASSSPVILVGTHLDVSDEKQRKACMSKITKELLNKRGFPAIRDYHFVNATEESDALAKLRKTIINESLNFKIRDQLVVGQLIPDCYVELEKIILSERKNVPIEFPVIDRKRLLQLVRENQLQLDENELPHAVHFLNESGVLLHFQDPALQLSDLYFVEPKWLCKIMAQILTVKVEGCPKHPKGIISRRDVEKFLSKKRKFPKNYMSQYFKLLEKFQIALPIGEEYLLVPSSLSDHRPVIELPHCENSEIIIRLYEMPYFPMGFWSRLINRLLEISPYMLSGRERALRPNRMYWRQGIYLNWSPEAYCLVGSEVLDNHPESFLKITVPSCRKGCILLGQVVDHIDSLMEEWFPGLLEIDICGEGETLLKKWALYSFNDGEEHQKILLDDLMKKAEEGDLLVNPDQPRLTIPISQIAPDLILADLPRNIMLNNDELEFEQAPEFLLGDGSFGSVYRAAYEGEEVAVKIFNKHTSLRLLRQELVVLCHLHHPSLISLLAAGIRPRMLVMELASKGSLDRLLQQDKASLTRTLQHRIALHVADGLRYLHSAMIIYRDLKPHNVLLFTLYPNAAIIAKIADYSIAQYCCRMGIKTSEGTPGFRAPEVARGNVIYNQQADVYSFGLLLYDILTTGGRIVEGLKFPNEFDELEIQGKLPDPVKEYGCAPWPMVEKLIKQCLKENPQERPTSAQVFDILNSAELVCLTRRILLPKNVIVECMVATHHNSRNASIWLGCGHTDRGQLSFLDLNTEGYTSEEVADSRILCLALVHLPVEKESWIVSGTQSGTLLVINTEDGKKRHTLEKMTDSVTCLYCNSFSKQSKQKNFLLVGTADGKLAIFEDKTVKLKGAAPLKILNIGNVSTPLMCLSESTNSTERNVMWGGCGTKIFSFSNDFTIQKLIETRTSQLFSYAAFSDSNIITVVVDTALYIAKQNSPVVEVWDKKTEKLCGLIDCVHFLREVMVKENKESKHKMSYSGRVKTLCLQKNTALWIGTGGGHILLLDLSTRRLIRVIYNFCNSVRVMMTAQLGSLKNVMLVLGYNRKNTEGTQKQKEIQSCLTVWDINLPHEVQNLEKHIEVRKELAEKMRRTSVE

This experiment concerns the target GST-tagged truncated human mutant G2019S LRRK2 (Homo sapiens (Human), UniProt Q5S007, G2019S). Put plainly: LRRK2 G2019S Km ATP LanthaScreen Assay. The following applies: 134 μM ATP (Km ATP); fluorescein-labeled LRRKtide substrate; mean IC50 values. It is filed as biochemical.
With `C[C@H]1CN(c2cc(-n3ncc4ccc([C@@]5(C#N)CC56CC6)cc43)ncn2)CCN1C1CCOC1` (single isomer, unassigned) [Example 3.8-3], the IC50 was determined as 1.3 nM.
Molecule `C[C@@H]1CN(c2cc(-n3ncc4ccc([C@@]5(C#N)CC56CC6)cc43)ncn2)CCN1C1CCOC1` (single isomer, unassigned) [Example 3.7-3] yielded an IC50 of 9 nM.
As for `CC1CN(c2cc(-n3ncc4ccc([C@@]5(C#N)CC56CC6)cc43)ncn2)CC1C(C)(C)O` (single isomer, unassigned) [Example 3.6-1], the figure is 2.2 nM.
As for `CC(C)(O)C12CC(C1)N(c1cc(-n3ncc4cc(F)c(C5(C#N)CC56CC6)cc43)ncn1)C2` (single isomer, unassigned) [Example 5.5-1, 1-(5-fluoro-1-(6-(4-(2-hydroxypropan-2-yl)-2-azabicyclo[2.1.1]hexan-2-yl)pyrimidin-4-yl)-1H-indazol-6-yl)spiro[2.2]pentane-1-carbonitrile], the figure is 3.9 nM.
To `C[C@@H]1CN(c2cc(-n3ncc4ccc([C@]5(C#N)CC56CC6)cc43)ncn2)C[C@H](C)N1C1COC1` [Example 4.1] belongs 0.6 nM; to `N#C[C@@]1(c2ccc3cnn(-c4cc(N5CC(O)C6(CC6)C5)ncn4)c3c2)CC12CC2` (single isomer, unassigned) [Example 3.11-4], 0.6 nM; to `CNc1nc(C)cc(-n2ncc3ccc([C@]4(C#N)CC45CC5)cc32)n1` [Example 4.25], 3.5 nM.
Regarding `CC(C)(O)[C@@H]1CCN(c2cc(-n3ncc4ccc(C5(C#N)CC56CC6)cc43)ncn2)C1` (single isomer, unassigned) [Example 1.4-1, (R or S)-1-(1-(6-((R)-3-(2-hydroxypropan-2-yl)pyrrolidin-1-yl)pyrimidin-4-yl)-1H-indazol-6-yl)spiro[2.2]pentane-1-carbonitrile], the IC50 was 1 nM.
Molecule `Cc1nc(N2CC3(C2)CN(C2COC2)C3)cc(-n2ncc3ccc([C@]4(C#N)CC45CC5)cc32)n1` [Example 11.3] registered an IC50 of 454 nM.
As for `CC1C(C(C)(C)O)CCN1c1cc(-n2ncc3ccc([C@]4(C#N)CC45CC5)cc32)ncn1` (single isomer, unassigned) [Example 3.5-6], the figure is 4.9 nM; as for `N#C[C@]1(c2ccc3cnn(-c4cc(N5CC(O)C6(CC6)C5)ncn4)c3c2)CC12CC2` (single isomer, unassigned) [Example 3.11-1], 6.7 nM; as for `Cc1nc(N2CCN(C3(C)COC3)CC2)cc(-n2ncc3ccc([C@]4(C#N)CC45CC5)cc32)n1` [Example 11.1, (S)-1-(1-(2-methyl-6-(4-(3-methyloxetan-3-yl)piperazin-1-yl)pyrimidin-4-yl)-1H-indazol-6-yl)spiro[2.2]pentane-1-carbonitrile], 0.6 nM.
`CC1C(C(C)(C)O)CCN1c1cc(-n2ncc3ccc([C@@]4(C#N)CC45CC5)cc32)ncn1` (single isomer, unassigned) [Example 3.5-3] yielded an IC50 of 1.9 nM.
As for `CC(C)(O)C12CC(C1)N(c1cc(-n3ncc4c(F)cc(C5(C#N)CC56CC6)cc43)ncn1)C2` (single isomer, unassigned) [Example 4.15-2], the figure is 2.3 nM; as for `CC1(O)CN(c2cc(-n3ncc4ccc([C@]5(C#N)CC56CC6)cc43)ncn2)C1` [Example 4.2], 1.3 nM; as for `CC1(O)CC2(CN(c3cc(-n4ncc5ccc([C@@]6(C#N)CC67CC7)cc54)ncn3)C2)C1` [Example 3.9-1], 2.5 nM.
Consider `CC(C)(O)C12CC(C1)N(c1cc(-n3ncc4cnc(C5(C#N)CC56CC6)cc43)ncn1)C2` (single isomer, unassigned) [Example 5.2-2, 1-(1-(6-(4-(2-hydroxypropan-2-yl)-2-azabicyclo[2.1.1]hexan-2-yl)pyrimidin-4-yl)-1H-pyrazolo[4,3-c]pyridin-6-yl)spiro[2.2]pentane-1-carbonitrile], for which the IC50 came out at 1.7 nM.
To `C[C@@H]1CN(c2cc(-n3ncc4ccc([C@]5(C#N)CC56CC6)cc43)ncn2)CCN1C1COC1` [Example 3.1-2] belongs 0.6 nM; to `COCc1nc(N2CC3(C(C)(C)O)CC2C3)cc(-n2ncc3ccc(C4(C#N)CC45CC5)cc32)n1` (single isomer, unassigned) [Example 2.3-2, (R or S)-1-(1-(6-(4-(2-hydroxypropan-2-yl)-2-azabicyclo[2.1.1]hexan-2-yl)-2-(methoxymethyl)pyrimidin-4-yl)-1H-indazol-6-yl)spiro[2.2]pentane-1-carbonitrile], 1.2 nM; to `CC1C(C(C)(C)O)CCN1c1cc(-n2ncc3ccc([C@@]4(C#N)CC45CC5)cc32)ncn1` (single isomer, unassigned) [Example 3.5-1], 123 nM.
To `CC1C(C(C)(C)O)CCN1c1cc(-n2ncc3ccc([C@@]4(C#N)CC45CC5)cc32)ncn1` (single isomer, unassigned) [Example 3.5-7] belongs 5.1 nM; to `Cc1cc(-n2ncc3ccc(C4(C#N)CC45CC5)cc32)cc(N2CC3(C(C)(C)O)CC2C3)n1` (single isomer, unassigned) [Example 7.3-1, (R or S)-1-(1-(2-(4-(2-hydroxypropan-2-yl)-2-azabicyclo[2.1.1]hexan-2-yl)-6-methylpyridin-4-yl)-1H-indazol-6-yl)spiro[2.2]pentane-1-carbonitrile], 54.2 nM; to `Cc1cc(-n2ncc3ccc([C@]4(C#N)CC45CC5)cc32)cc(C)n1` [Example 11.5], 7.8 nM.
As for `CNc1nc(N2CC[C@@H](C(C)(C)O)C2)cc(-n2ncc3ccc(C4(C#N)CC45CC5)cc32)n1` (stereo partly drawn) [Example 2.6-1, 1-(1-(6-((R)-3-(2-hydroxypropan-2-yl)pyrrolidin-1-yl)-2-(methylamino)pyrimidin-4-yl)-1H-indazol-6-yl)spiro[1.2.2]pentane-1-carbonitrile], the figure is 0.8 nM.

Usually IC50 stands for the concentration needed to halve the response being measured.
